Experimental data taken from patent US20220265770A1, “TREATING NEURODEGENERATIVE DISEASES WITH PROGRANULIN” (NEURODYN, INC., priority 2008, published 2022).
“Also recorded” adds a separate entry of the source.

Columns and labels:
[1] = system: motor neurons in lumbar cord; assay: Motor neuron quantification (Nissl, ChAT, CTIP2, caspase-3) after 10 weeks BSSG; format: in vivo, mouse; details: varying doses of synthetic BSSG for 10 weeks, aged 1 or 5 months on normal chow
Description: Six month old male CD-1 mice were fed varying doses of synthetic BSSG for 10 weeks, then allowed to age for 1 month with a diet of normal chow prior to sacrifice (see FIG. 3, panels A-C). Motor neurons were quantified in lumbar cord, by Nissl staining and choline acetyltransferase (ChAT) immunohistochemistry (IHC), as shown in FIG. 3A. Motor neurons were quantified in motor cortex where neurons were detected by IHC against CTIP2 (highly expressed in corticospinal motor neurons), as shown in FIG. 3C. Motor neurons in the lumbar spinal cord of animals permitted to age for 5 months following the cessation of BSSG were quantified after Nissl staining, as shown in FIG. 3D (* P<0.01, ANOVA).
Lumbar spinal cord sections were stained with cresyl violet and ventral horn motor neurons were counted under a 40× objective lens. All motor neurons in the field of view were included in the results. Multiple sections (N=6) from each mouse were used. Counts were conducted on spinal cord sections that were at least 150 μm apart (in the rostral-caudal plane) ensuring that no motor neuron was counted twice. In addition, counts included all apparent motor neurons including motor neurons that may have appeared atrophic or damaged.
Active caspase-3 (Promega, Madison, Wis.) labeling was performed as follows. […] Sections were visualized using fluorescence microscopy. […]

progranulin expression = assay: In situ hybridization of progranulin expression in cervical spinal cord of BSSG fed mice; format: in vivo, mouse
Protocol: Adult male CD-1 mice were fed a diet of either normal chow or chow containing […] per day of synthetic BSSG. Following 10 weeks of feeding with BSSG-containing chow and a further month with normal lab chow, mice were killed and ISH using progranulin specific antisense riboprobes was performed on frozen sections of cervical spinal cord cut in trans-section. High levels of progranulin expression were detected in the anterior horn cells of the control mouse as shown by the section in FIG. 9A. […] A negative control section is shown in FIG. 9C, incubated with a sense probe.
Adult male CD-1 mice were fed a diet of chow containing 10, 100, or 1000 μg per day of synthetic BSSG. Following 10 weeks of feeding with BSSG-containing chow and a further month with normal lab chow, mice were killed and ISH using progranulin specific riboprobes was performed on frozen sections of cervical spinal cord cut in trans-section. […] Additionally, there is a more pronounced loss of progranulin expression per cell as BSSG exposure increases.

male CD-1 mice [2] = assay: Open field motor activity (grid crossings) following synthetic BSSG exposure; format: in vivo, mouse; details: same mice as Example 4; week 28 vs controls, p<0.05
Protocol: The same mice exposed to BSSG in Example 4 were used to analyze open field motor activity. *=p<0.05 (Student T-test).
For the open field motor activity analysis, mice were placed in a round open field (2 m diameter) for 5 minutes and movements were recorded using a video camera to measure emotionality and exploration (spontaneous motor activity) (Karl et al., 2003). Videos were replayed on a TV and a circular grid was overlaid on the TV screen. Grid crossings were recorded.

male CD-1 mice [3] = assay: Leg extension reflex following synthetic BSSG exposure; format: in vivo, mouse; details: 100 mg/day synthetic BSSG for 15 weeks, then normal chow; weekly, week 0-32, vs control p<0.0001
Protocol: Three month old male CD-1 mice were fed 100 mg/day of synthetic BSSG for 15 weeks, then permitted to age with a diet of normal lab chow. Leg extension was measured weekly from the initiation of the experiment. Testing was performed as described in Wilson et al., 2004 and Wilson et al., 2005.
The leg extension reflex test was used as a measure of motor neuron dysfunction (Barneoud and Curet, 1999). This test was altered to discriminate more subtle behaviors, creating a scale from 0 to 4. […] This scale allows the measure of progression in a continuous manner over time. A score of 0-4 is assigned based on the response shown by the mouse as follows:
4: Complete extension of both legs (normal).
3: Two legs extended with some tremors and/or punching in a leg.
2: One leg extended, 1 retracted, or tremors in both legs.
1: One leg retracted, tremors in other leg.

NSC-34 cells [4] = details: literature (Tabata et al.); cited from earlier work
spinal motor neurons = assay: Spinal motor neuron counts and ChAT in BSSG challenged mice treated with PGRN lentivirus; format: in vivo, mouse
[5] = system: caudal primary motor neurons of zebrafish embryos; assay: Zebrafish ventral primary motor axon/nerve growth (znp1 immunostaining); format: in vivo
Description: During the first day of zebrafish development, neuromuscular connections are restricted to the three primary motoneurons (CaP, MiP and RoP) per spinal cord hemisegment where they innervate three myotome areas that ultimately develop into body wall muscle. During the first the 24 hpf CaP axons project to establish the common pathway. This is the developmental period encompassed in FIGS. 27 and 28.
Development of ventral primary neurons were examined in whole mount embryos at 26-28 hpf and visualized by immunostaining with znp1 monoclonal antibody that labels primary motor neurons.
There is reduced incidence (P<0.001) of truncated neurons (FIG. 27, Panel D, white arrows) together with increased incidence (P<0.001) of early and late branching (FIG. 27, Panel E, white arrowheads) as shown in Table 2. Data sets were accumulated from 50 embryos (WT, progranulin MO, progranulin MO plus mRNA).
Fish husbandry: Wild type zebrafish were purchased from Aquatica Tropicals (Florida) and maintained on a 14 h/10 h light/dark cycle at 28.5° C. in a laboratory aquarium (Allentown Caging Equipment Co. Inc., Allentown, N.J.). Fish were fed twice daily. In the late afternoon of the day before eggs are required, fish were transferred to a net positioned towards the top of a holding tank and covered. In the morning, after the light cycle begins and spawning has stopped, the eggs that have fallen through the net were collected from the bottom of the tank. Embryos to be used for developmental studies were collected and staged by hours post fertilization (hpf). […]
Microinjection of Pgrn mRNA: For Pgrn mRNA over-expression and rescue experiments the vector was generated as follows: The full-length progranulin-a sequence was purchased from RZPD (Berlin, Germany) as clone UCDMp574E2318Q2 and subcloned into pcDNA3.1-V5/His vector (Invitrogen, Carlsbad, Calif.) using a forward primer that overlapped with the starter AUG a reverse primer that read through the termination codon. […]

NSC-34 cells [6] = assay: NSC-34 proliferation/survival with granulin epithelin modules (CyQUANT NF); format: cell-based; details: 50 or 100 ng/ml, 13 days, RPMI without serum
Protocol: NSC 34 cells (5000 cell/well) were plated in 96 well plates using 100 ul of DMEM/10% FBS. The following day, the medium was removed and replaced with 100 ul of RPMI (without serum) containing: 0, 50 or 100 ng/ml of grn D or grn F. Cultures were incubated for 13 days following which cell proliferation/survival was determined using the CyQUANT® NF (kit #C35006) assay.
The CyQUANT® NF assay is based on measurement of cellular DNA content via fluorescent dye binding. The extent of proliferation/survival is determined by comparing fluorescence intensity for NSC-34 cells treated with GEMs (50 and 100 ng) relative to untreated controls (Ong).
As per the manufacturers instructions, the protocol included aspiration of growth medium, replacement with 100 ul of dye binding solution per well, incubation for 30 minutes following which the fluorescence intensity of each sample was measured using a fluorescence microplate reader with excitation at ˜485 nm and emission detection at ˜530 nm (FIG. 22). The immortalized motor neuron cell line (NSC-34) responded to incubation with grn F and grn D with either proliferation/survival (grn F) or no effect (grn D) similar to the response of extra neuronal cells incubated in the presence of these GEM's (described in: Tolkatchev D. et al., Protein Sci. 17:711-724, 2008).

[7] = Table 2, average number of motor axon/nerve defects per affected side, n=50, 10 ng PgrnA MO, 100 pg mRNA, 26-28 hpf

## CC[C@H](CC[C@@H](C)[C@H]1CC[C@H]2[C@@H]3CC=C4C[C@@H](O[C@@H]5O[C@H](CO)[C@@H](O)[C@H](O)[C@H]5O)CC[C@]4(C)[C@H]3CC[C@]12C)C(C)C [BSSG, β-sitosterol β-D-glucoside]
[1]
  motor neurons in lumbar spinal cord: Progressive loss of motor neurons; also recorded: dose dependent loss of motor neuron health
Progranulin expression; 10, 100 or 1000 μg per day BSSG, 10 weeks plus 1 month normal chow
  neuropathology and loss of progranulin expressing cells in cervical spinal cord: more pronounced neuropathology
Progranulin expression; 1000 μs per day synthetic BSSG 10 weeks plus 1 month normal chow
  progranulin expression in anterior horn cells of cervical spinal cord (ISH): decreased in intensity and was observed in fewer cells of the anterior horn
Male CD-1 mice [2]
  open field motor activity (grid crossing): significantly decreased movement
Male CD-1 mice [3]
  leg extension reflex (score 0-4): decline in leg extension reflex
NSC-34 cells [4]
  cytotoxicity in NSC-34 cell line: cause cytotoxicity
Spinal motor neurons; control (saline treated) BSSG exposed mice
  numbers of ChAT positive motor neurons: appeared to be reduced
Spinal motor neurons; saline treated BSSG exposed mice relative to all other treatment groups
  choline acetyl transferase (ChAT) activity in anterior horn cells: decreased activity

## PGRN-MO2: morpholino to 5′UTR of zebrafish pgrn-a, 5′-GAGCAGGTGGATTTGTGAACAGCGG-3′ (all phosphorodiamidate morpholino (PMO))
[5]; [7]
  Branching: 1.0 ± 0.19*c
  Truncation: 3.02 ± 0.31***a
[5]; whole mount embryos 26-28 hpf, znp1
  primary motor neuron phenotype: range of morphant phenotypes

B1: grn D: granulin epithelin module, SEQ ID NO: 10, His-tagged (protein)
chain: AMDIGCDQHTSCPVGQTCCPSLGGSWACCQLPHAVCCEDRQHCCPAGYTCNVKARSCEKLAAALEHHHHHH
modifications: His tag
NSC-34 cells [6]
  cell proliferation/survival (CyQUANT NF fluorescence): no effect
